# Biological target: T1, human ACC2 (Homo sapiens, UniProt O00763)
# T1 construct: made in house; host or cells: insect cells (baculoviral expression system)
# Assay: ACC2 assay, spectrophotometric 384 well assay (NADH-linked, coupled lactate dehydrogenase/pyruvate kinase)
# Type: biochemical
# Conditions: ACC2 assay; human ACC2 construct lacking 128 N-terminal amino acids; 25° C., 340 nm, 15 minutes; read-out: IC50
# In short: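 N-terminally truncated (Δ128) human ACC2 expressed in baculovirus/insect cells; ADP formation coupled via pyruvate kinase/lactate dehydrogenase to NADH consumption, pH 7.5, 25 mM KHCO3, 1% DMSO. Reaction started with NADH, acetyl-CoA and ATP (500 uM f.c.); A340 slope over 15 min at 25° C, IC50 by four-parameter fit after subtracting no-acetyl-CoA controls.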
# T1 sequence (O00763 129-2458 limits assumed): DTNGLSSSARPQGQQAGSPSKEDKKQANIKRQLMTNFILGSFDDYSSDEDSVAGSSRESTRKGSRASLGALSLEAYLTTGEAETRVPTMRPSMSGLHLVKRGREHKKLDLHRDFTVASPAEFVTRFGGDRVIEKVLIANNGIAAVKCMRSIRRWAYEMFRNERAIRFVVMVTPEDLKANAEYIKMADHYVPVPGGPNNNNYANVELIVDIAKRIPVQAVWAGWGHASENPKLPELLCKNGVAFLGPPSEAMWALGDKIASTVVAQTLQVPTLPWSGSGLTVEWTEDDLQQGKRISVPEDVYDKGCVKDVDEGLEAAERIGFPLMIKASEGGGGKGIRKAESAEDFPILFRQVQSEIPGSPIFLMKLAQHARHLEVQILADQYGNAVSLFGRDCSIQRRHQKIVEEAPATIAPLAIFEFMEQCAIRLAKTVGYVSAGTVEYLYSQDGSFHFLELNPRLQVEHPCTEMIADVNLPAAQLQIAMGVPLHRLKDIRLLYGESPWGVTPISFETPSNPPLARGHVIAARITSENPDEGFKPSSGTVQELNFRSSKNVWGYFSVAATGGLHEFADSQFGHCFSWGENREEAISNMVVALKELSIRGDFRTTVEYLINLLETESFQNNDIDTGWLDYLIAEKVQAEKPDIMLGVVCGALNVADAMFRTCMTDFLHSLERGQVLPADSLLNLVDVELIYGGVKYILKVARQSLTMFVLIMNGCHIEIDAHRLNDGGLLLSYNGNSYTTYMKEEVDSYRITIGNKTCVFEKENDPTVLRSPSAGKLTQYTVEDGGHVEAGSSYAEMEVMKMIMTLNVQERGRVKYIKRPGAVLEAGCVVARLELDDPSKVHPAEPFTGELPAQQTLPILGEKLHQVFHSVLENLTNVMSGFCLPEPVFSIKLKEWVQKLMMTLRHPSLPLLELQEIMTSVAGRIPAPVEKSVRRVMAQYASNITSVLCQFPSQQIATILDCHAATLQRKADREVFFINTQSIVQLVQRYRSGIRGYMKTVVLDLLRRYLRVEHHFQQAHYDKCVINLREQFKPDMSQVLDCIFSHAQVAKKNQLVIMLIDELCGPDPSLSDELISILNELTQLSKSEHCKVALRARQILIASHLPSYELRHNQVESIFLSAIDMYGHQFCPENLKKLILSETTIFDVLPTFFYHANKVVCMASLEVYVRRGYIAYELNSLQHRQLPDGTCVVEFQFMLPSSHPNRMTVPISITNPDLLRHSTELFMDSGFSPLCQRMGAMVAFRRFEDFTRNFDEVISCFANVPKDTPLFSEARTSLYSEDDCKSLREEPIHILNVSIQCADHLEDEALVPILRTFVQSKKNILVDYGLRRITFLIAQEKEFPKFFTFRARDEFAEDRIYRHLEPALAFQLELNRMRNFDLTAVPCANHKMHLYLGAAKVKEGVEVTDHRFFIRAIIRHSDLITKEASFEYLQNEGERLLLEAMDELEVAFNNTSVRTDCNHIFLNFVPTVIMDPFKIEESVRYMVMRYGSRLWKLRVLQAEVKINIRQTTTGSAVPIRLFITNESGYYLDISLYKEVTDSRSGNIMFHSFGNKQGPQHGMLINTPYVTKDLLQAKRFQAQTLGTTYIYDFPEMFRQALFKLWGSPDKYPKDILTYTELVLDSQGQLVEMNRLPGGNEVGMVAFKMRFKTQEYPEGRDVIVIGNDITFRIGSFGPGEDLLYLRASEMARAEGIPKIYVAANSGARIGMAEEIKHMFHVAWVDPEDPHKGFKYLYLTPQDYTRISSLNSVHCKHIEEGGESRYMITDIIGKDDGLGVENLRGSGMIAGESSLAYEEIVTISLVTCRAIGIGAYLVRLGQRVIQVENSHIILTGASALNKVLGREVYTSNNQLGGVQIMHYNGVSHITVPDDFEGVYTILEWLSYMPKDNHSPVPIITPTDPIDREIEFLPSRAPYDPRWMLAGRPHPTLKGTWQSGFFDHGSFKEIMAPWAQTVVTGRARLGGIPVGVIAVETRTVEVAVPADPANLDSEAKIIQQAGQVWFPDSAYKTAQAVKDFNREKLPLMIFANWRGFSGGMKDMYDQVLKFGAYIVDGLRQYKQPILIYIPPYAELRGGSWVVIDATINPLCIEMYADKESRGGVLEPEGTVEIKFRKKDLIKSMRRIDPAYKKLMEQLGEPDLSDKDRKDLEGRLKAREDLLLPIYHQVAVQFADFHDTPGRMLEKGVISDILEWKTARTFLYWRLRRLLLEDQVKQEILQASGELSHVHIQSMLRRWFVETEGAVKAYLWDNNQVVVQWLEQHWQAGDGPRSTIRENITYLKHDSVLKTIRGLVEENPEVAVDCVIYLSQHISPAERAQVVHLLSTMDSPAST
row,IC50,Structure (SMILES)
1,0.06 µM,"CCOc1ccc(OC2CN(c3ccc([C@H](C)NC(=O)C(F)(F)F)cc3)C2)cc1 [Example 3.1, (S)—N-(1-{4-[3-(4-Ethoxy-phenoxy)-azetidin-1-yl]-phenyl}-ethyl)-2,2,2-trifluoro-acetamide]"
2,0.31 µM,CC(=O)N[C@@H](C)c1ccc(N2CC(Oc3cccc(OC4CCC4)n3)C2)cc1 [Example 12.7]
3,0.15 µM,CC(=O)NC(C)c1ccc(N2CC(Oc3ccnc(OCC(F)F)c3)C2)cc1 (stereo not shown) [Example 11.6]
4,0.05 µM,CCCOc1ccc(OC2CN(c3ccc([C@H](C)NC(C)=O)cc3)C2)cc1 [Example 9.3]
5,0.2 µM,CCOc1ccc(OC2CN(c3ccc([C@H](C)NC(C)=O)cc3)C2)c(F)c1F [Example 10.7]
6,1.95 µM,CCOc1ccc(OC2CN(c3ccc([C@H](C)NC(=O)c4cccnc4)cc3)C2)cc1 [Example 1.27]
7,0.98 µM,"CC(=O)N[C@@H](C)c1ccc(N2CC(Oc3ccnc(C)n3)C2)cc1 [Example 14.3, (S)—N-(1-{4-[3-(2-Methyl-pyrimidin-4-yloxy)-azetidin-1-yl]-phenyl}-ethyl)-acetamide]"
8,2.98 µM,"CCOc1ccc(OC2CN(c3ccc([C@H](C)NC(=O)c4cn[nH]c4)cc3)C2)c(F)c1 [Example 8.2, (S)-1H-Pyrazole-4-carboxylic acid (1-{4-[3-(4-ethoxy-2-fluoro-phenoxy)-azetidin-1-yl]-phenyl}-ethyl)-amide]"
9,0.4 µM,CCOc1ccc(OC2CN(c3ccc([C@H](C)NC(=O)c4ocnc4C)cc3)C2)cc1 [Example 1.35]
10,0.07 µM,C[C@H](NC(=O)N(C)C)c1ccc(N2CC(Oc3ccc(OCC4CC4)cc3)C2)cc1 [Example 4.15]
11,2.06 µM,CCOc1ccc(OC2CN(c3ccc([C@H](C)NC(=O)C4CCC(=O)N4)cc3)C2)cc1 (stereo partly shown) [Example 1.59]
12,0.12 µM,C[C@H](NC(=O)C1(C)CC1)c1ccc(N2CC(Oc3ccc(OCC4CC4)cc3)C2)cc1 [Example 1.89]
13,0.45 µM,CCOc1ccc(OC2CN(c3ccc([C@H](C)NC(=O)Cc4cncnc4)cc3)C2)cc1 [Example 1.22]
14,1.04 µM,C#CCCC(=O)N[C@@H](C)c1ccc(N2CC(Oc3ccc(OCC)cc3)C2)cc1 [Example 1.77]
15,0.23 µM,CCOc1ccc(OC2CN(c3ccc([C@H](C)NC(=O)c4cncs4)cc3)C2)cc1 [Example 1.85]
16,0.07 µM,"CC(=O)N[C@@H](C)c1ccc(N2CC(Oc3ccc(OC(C)C)cc3)C2)cc1 [Example 9.1, (S)—N-(1-{4-[3-(4-Isopropoxy-phenoxy)-azetidin-1-yl]-phenyl}-ethyl)-acetamide]"
17,0.07 µM,C[C@H](NC(=O)C1CC1)c1ccc(N2CC(Oc3ccc(OCC4CC4)cc3)C2)cc1 [Example 2.7]
18,0.64 µM,CC(=O)N[C@@H](C)c1ccc(N2CC(Oc3ccc(OC(C)(C)C)cc3)C2)cc1 [Example 10.5]
19,0.33 µM,CCc1cccc(OC2CN(c3ccc([C@H](C)NC(C)=O)cc3)C2)n1 [Example 12.11]
20,1.19 µM,CCOc1ccc(OC2CN(c3ccc([C@H](C)NC(=O)c4coc(NC(C)=O)n4)cc3)C2)cc1 [Example 1.72]
21,0.17 µM,CCOc1ccc(OC2CN(c3ccc([C@H](C)NC(=O)C4CCC4)cc3)C2)cc1 [Example 1.7]
22,0.41 µM,CCOc1ccc(OC2CN(c3ccc([C@H](C)NC(=O)CC(F)(F)F)cc3)C2)cc1 [Example 1.75]
23,0.32 µM,CCOc1ccc(OC2CN(c3ccc([C@H](C)NC(=O)c4cnc(NC(C)=O)s4)cc3)C2)cc1 [Example 1.60]

row,IC50,Structure (SMILES)
1,2.37 µM,CCOc1ccc(OC2CN(c3ccc([C@H](C)NC(=O)N4CCC4)cc3)C2)cc1 [Example 4.11]
2,1.07 µM,CCOc1ccc(OC2CN(c3ccc([C@H](C)NC(=O)c4cnc(C)s4)cc3)C2)cc1 [Example 1.41]
3,0.28 µM,COc1ccc(OC2CN(c3ccc([C@H](C)NC(C)=O)cc3)C2)c(F)c1 [Example 10.4]
4,0.05 µM,C[C@H](NC(=O)c1cn[nH]c1)c1ccc(N2CC(Oc3ccc(OCC4CC4)cc3)C2)cc1 [Example 1.86]
5,1.28 µM,"CC(=O)N[C@@H](C)c1ccc(N2CC(Oc3ccc(C)c(F)c3F)C2)cc1 [Example 10.1, (S)—N-(1-{4-[3-(2,3-Difluoro-4-methyl-phenoxy)-azetidin-1-yl]-phenyl}-ethyl)-acetamide]"
6,1.23 µM,CCOc1ccc(OC2CN(c3ccc([C@H](C)NC(=O)c4ccncc4)cc3)C2)cc1 [Example 1.26]
7,0.17 µM,"CCOc1ccc(OC2CN(c3ccc(C(C)NC(C)=O)cn3)C2)cc1 (stereo not shown) [Example 8.6, N-(1-{6-[3-(4-Ethoxy-phenoxy)-azetidin-1-yl]-pyridin-3-yl}-ethyl)-acetamide]"
8,0.33 µM,CCOc1cc(F)c(OC2CN(c3ccc([C@H](C)NC(C)=O)cc3)C2)c(F)c1 [Example 10.6]
9,3.41 µM,"CCOc1ccc(OC2CN(c3ccc([C@H](C)NC(=O)Nc4ccncn4)cc3)C2)cc1 [Example 4.1, (S)-1-(1-{4-[3-(4-Ethoxy-phenoxy)-azetidin-1-yl]-phenyl}-ethyl)-3-pyrimidin-4-yl-urea]"
10,0.11 µM,CC(=O)N[C@@H](C)c1ccc(N2CC(Oc3cc(C(F)(F)F)ccc3F)C2)cc1 [Example 10.17]
11,0.06 µM,CC(=O)N[C@@H](C)c1ccc(N2CC(Oc3ccnc(OCC(C)C)c3)C2)cc1 [Example 11.3]
12,1.01 µM,CCOc1ccc(OC2CN(c3ccc([C@H](C)NC(=O)CO)cc3)C2)cc1 [Example 1.28]
13,3.15 µM,CCOc1ccc(OC2CN(c3ccc([C@H](C)NC(=O)c4ccc(C)c(NC(C)=O)c4)cc3)C2)cc1 [Example 1.69]
14,0.18 µM,CC(=O)N[C@@H](C)c1ccc(N2CC(Oc3cccc(C4CCCC4)n3)C2)cc1 [Example 12.13]
15,0.46 µM,CCOc1ccc(OC2CN(c3ccc([C@H](C)NC(=O)C4CC4C)cc3)C2)cc1 (stereo partly shown) [Example 1.9]
16,0.05 µM,CCOc1ccc(OC2CN(c3ccc([C@H](C)NC(=O)c4sc(NC(C)=O)nc4C)cc3)C2)cc1 [Example 1.32]
17,1 µM,CCOc1ccc(OC2CN(c3ccc([C@H](C)NC(=O)c4sc(C)nc4C)cc3)C2)cc1 [Example 1.76]
18,0.2 µM,C[C@H](NC(=O)CC#N)c1ccc(N2CC(Oc3ccc(OCC4CC4)cc3)C2)cc1 [Example 1.87]
19,0.07 µM,CCOc1ccc(OC2CN(c3ccc([C@H](C)NC(=O)C(C)(F)F)cc3)C2)cc1 [Example 1.53]
20,0.06 µM,CC(=O)N[C@@H](C)c1ccc(N2CC(Oc3cccc(C(F)(F)F)n3)C2)cc1 [Example 14.2]
21,0.86 µM,CCOc1ccc(OC2CN(c3ccc([C@H](C)NC(=O)N(C)CC)cc3)C2)cc1 [Example 4.9]
22,0.61 µM,CCOc1ccc(OC2CN(c3ccc([C@H](C)NC(=O)c4csc(NC(C)=O)n4)cc3)C2)cc1 [Example 1.44]
23,3.99 µM,COc1ccc(OC2CN(c3ccc([C@H](C)NC(=O)C4CC4)cc3)C2)c(F)c1 [Example 10.21]
